Assay: Solubility of the dyebase in aqueous acid solvent systems
Format: physicochemical
Description: The solubility of the product from step (a) was then determined in the following aqueous solvent systems.

Solubility (% w/w) (solvent: 25% formic acid (aqueous)): 5.3 % w/w
Solubility (% w/w) (solvent: 25% lactic acid (aqueous)): 4.8 % w/w
solubility (solvent: 50% aqueous acetic acid (comparison)): 2.52 % w/w
Solubility (% w/w) (solvent: 50% formic acid (aqueous)): 7.5 % w/w
Solubility (% w/w) (solvent: 50% lactic acid (aqueous)): 4.9 % w/w
Solubility (% w/w) (solvent: 85% formic acid (aqueous)): 24.7 % w/w
Solubility (% w/w) (solvent: 88% lactic acid (aqueous)): 4.8 % w/w
Compound: NCCNc1ccc2c(c1)Oc1c(Cl)c3c(c(Cl)c1=N2)Oc1cc(NCCN)ccc1N=3 [Formula (3)]

— patent EP0476853B1, “Triphenodioxazine dyes” (ZENECA LIMITED, priority 1990, dated 1992)
